Laboratory results taken from patent US10309967B2, “Methods of diagnosing bipolar disorders and screening for therapeutic compounds” (National University Corporation Chiba University, priority 2015, dated 2019).
Entries after “also recorded” stand apart in the source; their conditions may differ.

How the values were obtained:
[1] = test system: serum samples from rats; assay: Metabolomics of serum samples from rats chronically treated with Li or VPA; assay type: in vivo, rat; conditions: chronic (4-weeks) treatment
Protocol: Data from human samples are presented as mean±standard deviation (SD). Statistical analysis was performed using SAS software version 9.3 (SAS Institute, Cary, N.C.). Analyses of metabolites between control and BD groups were performed using unpaired t-tests and Wilcoxon rank sum tests. A logistic regression model with a stepwise selection method was used for the multivariate analysis and multiple regression analysis (consistent with description in Allen et al., Technometrics. 1974; 16(1):125-127; and Miller et al., Chapman and Hall. 1974, which are incorporated in their entireties by reference herein). […] The Mann-Whitney U test (two-tailed) was used to evaluate changes in expression levels of the ACO and IDH genes between control and BD groups. Rat data are presented as mean±SD. To determine the effects of drug treatment, a one-way ANOVA, followed by the post hoc Dunnett's test was used. P values of less than 0.05 for two-tailed tests were considered statistically significant.
(§1) The CSF concentrations of 116 major metabolites from several pathways were measured. […] Male Sprague-Dawley rats (Japan SLC Inc., Shizuoka, Japan) aged 6 weeks old were used in this study. All rats were housed in groups of three per cage in a room maintained at 23° C.±2° C. and 60±10% humidity with a 12/12 hour light/dark cycle (lights on at 7:00 a.m.). The rats were given free access to food and water. Animal care and use were conducted in accordance with the Institutional Guidelines for Animal Care and Use of Otsuka Pharmaceutical Co., Ltd. (Tokushima, Japan). […] The drinking water was replaced twice a week. […] All animals were decapitated on day 30 after CSF sampling, and brain regions (prefrontal cortex, and hippocampus) were dissected rapidly on ice. Metabolomic analyses of rat CSF samples were performed as described herein.
The serum concentrations of 116 major metabolites from several pathways were measured.

[2] = test system: Idh3a; assay: Quantitative PCR of Idh3a mRNA in rat prefrontal cortex and hippocampus after Li or VPA; assay type: in vivo; conditions: normalized to Gapdh; for Idh3a gene expression: relative to control, mean ± SD
Protocol: (§2) Real-time quantitative RT-PCR analysis was conducted using an ABI7900HT Fast Real-Time PCR System (Applied Biosystems, Foster City, Calif.) in both human and rat samples. TaqMan probes and primers for the seven genes (ACO1, ACO2, IDH1, IDH2, IDH3A, IDH3B, IDH3G) and GAPDH (an internal control) (Table 11) were TAQMAN® Gene Expression Assays products (Applied Biosystems).
as §1
(§3) Prefrontal cortex, and hippocampus were dissected rapidly on ice and stored in RNA later (Applied Biosystems) at 4° C. until used for RNA isolation, cDNA synthesis and polymerase chain reaction (PCR) amplification. The total RNA was extracted using the RNeasy Lipid Tissue Mini Kit (QIAGEN) following the instructions of manufacturer. RNA yield and integrity was assessed using Nanodrop (NanoDrop Technologies). Reverse transcription of total RNA was done using the […] VILO cDNA Synthesis Kit (Invitrogen). In the quantitative PCR, the cDNA was amplified using commercial TaqMan assays (Applied Biosystems) for rat Idh3A (Rn00586270_m1), Idh3B (Rn00504589_g1), Aco1 (Rn00569045_m1), Aco2 (Rn00577876_m1) and Gapdh (Rn01775763_g1) with an ABI 7500 Fast Real-Time PCR system (Applied Biosystems). (Table 17) Reactions were performed in triplicates. All reactions were normalized to Gapdh and presented as relative expression changes compared to control.

[3] = test system: Idh3b; assay: Quantitative PCR of Idh3b mRNA in rat prefrontal cortex and hippocampus after Li or VPA; assay type: in vivo; conditions: normalized to Gapdh; for Idh3b gene expression: relative to control, mean ± SD
Protocol: as §2, §1, §3

[4] = test system: Aco2; assay: Quantitative PCR of Aco2 mRNA in rat prefrontal cortex and hippocampus after Li or VPA; assay type: in vivo; conditions: normalized to Gapdh; for Aco2 gene expression: relative to control, mean ± SD
Protocol: as §2, §1, §3

[5] = rat prefrontal cortex and hippocampus, chronic (4-weeks) treatment, vs control

O=C([O-])[O-].[Li+].[Li+] [Li, lithium carbonate]
2,3-Diphosphoglyceric acid Mean ([1]; rat serum): 2.3 | 2-Hydroxyglutaric acid Mean ([1]; rat serum): 2.7 | 2-Oxoglutaric acid Mean ([1]; rat serum): 64 | 2-Oxoisovaleric acid Mean ([1]; rat serum): 12 | 2-Phosphoglyceric acid Mean ([1]; rat serum): 0.7 | 3-Phosphoglyceric acid Mean ([1]; rat serum): 5.5 | ADP-ribose Mean ([1]; rat serum): 0.2 | AMP Mean ([1]; rat serum): 0.5 | ATP Mean ([1]; rat serum): 4.3 | Ala Mean ([1]; rat serum): 671 | Arg Mean ([1]; rat serum): 206 | Argininosuccinic acid Mean ([1]; rat serum): 0.6 | Asn Mean ([1]; rat serum): 87 | Asp Mean ([1]; rat serum): 13 | Betaine Mean ([1]; rat serum): 259 | Carnitine Mean ([1]; rat serum): 65 | Carnosine Mean ([1]; rat serum): 0.2 | Choline Mean ([1]; rat serum): 15 | Citric acid Mean ([1]; rat serum): 212 | Citrulline Mean ([1]; rat serum): 103 | Creatine Mean ([1]; rat serum): 104 | Creatinine Mean ([1]; rat serum): 26 | Cystathionine Mean ([1]; rat serum): 1.2 | Fructose 1,6-diphosphate Mean ([1]; rat serum): 0.3 | Fructose 6-phosphate Mean ([1]; rat serum): 0.10 | Fumaric acid Mean ([1]; rat serum): 4.0 | GDP Mean ([1]; rat serum): 0.5 | GMP Mean ([1]; rat serum): 0.12 | GTP Mean ([1]; rat serum): 2.0 | Gln Mean ([1]; rat serum): 817 | Glu Mean ([1]; rat serum): 140 | Glucose 6-phosphate Mean ([1]; rat serum): 0.6 | Glutathione (GSSG) Mean ([1]; rat serum): 0.5 | Gly Mean ([1]; rat serum): 340 | Glycerol 3-phosphate Mean ([1]; rat serum): 3.1 | Glycolic acid Mean ([1]; rat serum): 9.4 | His Mean ([1]; rat serum): 89 | Hydroxyproline Mean ([1]; rat serum): 65 | IMP Mean ([1]; rat serum): 0.14 | Ile Mean ([1]; rat serum): 119 | Isocitric acid Mean ([1]; rat serum): 9.5 | Lactic acid Mean ([1]; rat serum): 2,764 | Leu Mean ([1]; rat serum): 199 | Lys Mean ([1]; rat serum): 468 | Malic acid Mean ([1]; rat serum): 23 | Met Mean ([1]; rat serum): 59 | Mevalonic acid Mean ([1]; rat serum): 0.05 | N,N-Dimethylglycine Mean ([1]; rat serum): 18 | N-Carbamoylaspartic acid Mean ([1]; rat serum): 0.02 | NAD^+ Mean ([1]; rat serum): 1.1 | Ornithine Mean ([1]; rat serum): 75 | Phe Mean ([1]; rat serum): 67 | Phosphocreatine Mean ([1]; rat serum): 0.7 | Pro Mean ([1]; rat serum): 272 | Putrescine Mean ([1]; rat serum): 0.4 | Pyruvic acid Mean ([1]; rat serum): 126 | Ribose 1-phosphate Mean ([1]; rat serum): 0.3 | Ribose 5-phosphate Mean ([1]; rat serum): 0.04 | Ribulose 5-phosphate Mean ([1]; rat serum): 0.2 | Sarcosine Mean ([1]; rat serum): 7.2 | Ser Mean ([1]; rat serum): 319 | Succinic acid Mean ([1]; rat serum): 17 | Thr Mean ([1]; rat serum): 298 | Trp Mean ([1]; rat serum): 148 | Tyr Mean ([1]; rat serum): 95 | UDP-glucose Mean ([1]; rat serum): 0.6 | Urea Mean ([1]; rat serum): 6,360 | Uric acid Mean ([1]; rat serum): 23 | Val Mean ([1]; rat serum): 283 | cAMP Mean ([1]; rat serum): 0.04 | cGMP Mean ([1]; rat serum): 0.02 | cis-Aconitic acid Mean ([1]; rat serum): 4.3 | β-Ala Mean ([1]; rat serum): 2.0 | serum levels of 2-oxoglutaric acid ([1]; rats, vs control): significantly increased | serum levels of N-acetylglutamic acid ([1]; rats, vs control): not altered | serum levels of arginine ([1]; rats, vs control): not altered | serum levels of pyruvic acid ([1]; rats, vs control): not altered | serum levels of serine ([1]; rats, vs control): not altered | serum levels of β-alanine ([1]; rats, vs control): not altered | Idh3a gene expression ([2]; rat hippocampus): 1.2250 ± 0.2326 | mRNA levels of Idh3a [2, 5]: did not alter; also recorded: not altered | Idh3a gene expression ([2]; rat prefrontal cortex): 1.3420 ± 0.5725 | Idh3b gene expression ([3]; rat hippocampus): 1.3074 ± 0.2494 | mRNA levels of Idh3b [3, 5]: did not alter; also recorded: not altered | Idh3b gene expression ([3]; rat prefrontal cortex): 1.3440 ± 0.4424 | Aco2 gene expression ([4]; rat hippocampus): 1.1340 ± 0.1248 | mRNA levels of Aco2 [4, 5]: did not alter; also recorded: not altered | Aco2 gene expression ([4]; rat prefrontal cortex): 0.9921 ± 0.1576
